We go through 27 compounds from ChEMBL document CHEMBL3044558, “Structure-activity relationship development of dihaloaryl triazole compounds as insecticides and acaricides. 1. Phenyl thiophen-2-yl triazoles” (2007).

Test [1] has as its system Trichoplusia ni.
Test [2] relates to Spodoptera exigua. Description: Insecticidal activity against Spodoptera exigua second-instar larvae feeded on 400 ppm compound treated lepidopteran diet assessed as insect mortality measured 5 days post compound treatment under green house conditions. Format: functional. The settings on record: at 400 ppm.
In test [3] the test system is Bemisia tabaci.
The test system of test [4] is Aphis gossypii. Description: Insecticidal activity against Aphis gossypii (cotton aphid) infested one week old Crookneck squash plants assessed as insect mortality at 50 ppm measured after 3 days post compound application under green house conditions. It counts as functional. The settings on record: 72 h.
Test [5] relates to Tetranychus urticae. In words: Insecticidal activity against female Tetranychus urticae (two-spotted spider mite) infested cotton leaf disks followed by 2.5 ppm compound spraying after oviposit assessed as insect mortality measured after 6 days post compound application under green house conditions. It counts as functional. The settings on record: foliar, 144 h.
For test [6], the system named is Heliothis virescens. In words: Insecticidal activity against Heliothis virescens (tobacco budworm) second-instar larvae infested on 400 ppm compound pre-treated cotton cotyledon disk assessed as insect mortality measured 5 days post compound treatment under green house conditions. Format: functional.
In test [7] the test system is Bemisia tabaci. In words: Insecticidal activity against Bemisia tabaci (sweet potato whitefly) second-instar larvae infested five weeks old cotton plants followed by compound 250 ppm compound spraying after insect oviposit assessed as insect mortality measured 13 days post compound treatment under green house conditions. It counts as functional.
Test [8] deals with Aphis gossypii.
Test [9] deals with Trichoplusia ni. Description: Insecticidal activity against Trichoplusia ni (cabbage looper) second-instar larvae infested on 400 ppm compound pre-treated cabbage leaf disk assessed as insect mortality measured 5 days post compound treatment under green house conditions. It counts as functional. The settings on record: at 400 ppm.
Test [10] relates to Tetranychus urticae.

Activity calls are given as the source filed them. The rule behind the calls is not given here. Bounds are passed on as bounds.

Broadly, the mortality is the share of the test organisms that died. Take `Cc1sc(-c2nc(-c3c(F)cccc3Cl)nn2C)c(C)c1-c1ccc(C(C)C)cc1`: the mortality result in test [1] and in [3] was “inactive” throughout. For the same compound, the mortality in [2] and in [6] was 80% each time. The mortality at 50 ppm in test [4] is less than 50%. In addition, the mortality at 2.5 ppm in test [5] worked out at 90%.

For the compound `Cn1nc(-c2c(F)cccc2Cl)nc1-c1sc(-c2ccc(Br)cc2)c(Cl)c1Cl`, the mortality entry in test [1] and in test [8] was “inactive” each time. In addition, the results for the mortality in test [2], in test [7] and in test [6] were 70%, 50% and 90%, respectively. For the same compound, the mortality at 2.5 ppm in [5] came to 90%.

`CCOc1ccc(-c2cc(Cl)c(-c3nc(-c4c(F)cccc4Cl)nn3C)s2)cc1`: the mortality was determined as 80% in test [2], 60% in test [6] and 90% in test [9]. The mortality result in [3] and in test [8] was “inactive” each time. Further, the mortality at 2.5 ppm in test [5] stood at 90%.

As for `Cc1cc(-c2cc(Br)cc(Br)c2)sc1-c1nc(-c2c(F)cccc2Cl)nn1C`, the mortality result in test [1], in test [10], in test [3] and in test [8] was “inactive” in each case. The mortality is reported as 60% in test [2] and less than 50% in test [6].

Turning to `CCOc1ccc(-c2c(C)sc(-c3nc(-c4c(F)cccc4Cl)nn3C)c2C)cc1`, the mortality result in [1] was “inactive”. In addition, the mortality is 80% in [2], less than 50% in test [7] and 70% in test [6]. The mortality at 50 ppm in test [4] was less than 50%. The mortality at 2.5 ppm in [5] was less than 50%.

In the case of `Cc1cc(C2(O)CCC(=O)CC2)sc1-c1nc(-c2c(F)cccc2Cl)nn1C`, the mortality in test [2], in test [6] and in test [9] was less than 50% each time. The mortality result in [10], in [3] and in test [8] was “inactive” each time.

In the case of `Cc1cc(-c2ccncc2)sc1-c1nc(-c2c(F)cccc2Cl)nn1C`, the mortality in test [2] is 70%; in test [6], less than 50%; in test [9], 90%. The mortality entry in test [10], in [3] and in test [8] was “inactive” each time.

For the compound `CCOc1cccc(-c2cc(C)c(-c3nc(-c4c(F)cccc4Cl)nn3C)s2)c1`, the mortality in test [2] is 80%; in [6], less than 50%; in test [9], less than 50%. Besides, the mortality result in test [3] and in [8] was “inactive” throughout. Also, in [5], the mortality at 2.5 ppm was found to be 70%.

Turning to `Cc1cc(Oc2ncc(C(F)(F)F)cc2Cl)sc1-c1nc(-c2c(F)cccc2Cl)nn1C`, the mortality result in test [1] is “inactive”. Further, the mortality in test [2] was 70%; in [7] it was 90%; in test [6], 90%. Also, the mortality at 50 ppm in test [4] was found to be 90%. In addition, in test [5], the mortality at 2.5 ppm turned out to be 90%.

On to `Cc1cc(C2=CCC(OC(=O)C(F)(F)Br)CC2)sc1-c1nc(-c2c(F)cccc2Cl)nn1C` (stereo unspecified), for which the mortality result in [1] was “inactive”. The mortality is given as less than 50% in test [2] and 90% in test [6]. Also, the mortality at 50 ppm in [4] is less than 50%. Further, the mortality at 2.5 ppm in [5] came out at 70%.

Take `Cc1cc(-c2ccc3c(c2)OCCO3)sc1-c1nc(-c2c(F)cccc2Cl)nn1C`: the mortality turned out to be 80% in test [2], 90% in test [6] and 80% in [9]. The mortality entry in test [3] and in [8] was “inactive” throughout. Also, the mortality at 2.5 ppm in test [5] was 90%.

As to `Cn1nc(-c2c(F)cccc2Cl)nc1-c1sc(-c2ccc(-c3ccccc3)cc2)c(Cl)c1Cl`, the mortality result in [1] is “inactive”. The mortality is given as 50% in [2], less than 50% in [7] and 90% in [6]. Also, in test [4], the mortality at 50 ppm came to 90%. Besides, the mortality at 2.5 ppm in test [5] came out at 80%.

Take `Cc1cc(-c2ccc3c(c2)COC3)sc1-c1nc(-c2c(F)cccc2Cl)nn1C`: the mortality in test [2] is 60%; in [6], 90%; in [9] it was 70%. In addition, the mortality entry in [3] and in test [8] was “inactive” throughout. In addition, the mortality at 2.5 ppm in test [5] worked out at 80%.

As for `Cc1cc(C2=CCC(OC(F)(F)C(F)Cl)CC2)sc1-c1nc(-c2c(F)cccc2Cl)nn1C` (stereo unspecified), the mortality entry in test [1] was “inactive”. For the same compound, the results for the mortality in [2], in [7] and in [6] were 70%, 50% and 90%, respectively. Moreover, in test [4], the mortality at 50 ppm amounted to 90%. In [5], the mortality at 2.5 ppm is 90%.

Consider `Cc1cc(-c2cccc(OC(F)(F)F)c2)sc1-c1nc(-c2c(F)cccc2Cl)nn1C`, for which the mortality in [2] was 80%; in test [7], less than 50%; in test [6], 90%; in test [9], 90%. For the same compound, the mortality entry in test [10] and in test [8] was “inactive” throughout.

For `CCOc1ccc(-c2cc(C)c(-c3nc(-c4c(F)cccc4Cl)nn3C)s2)cc1`, the mortality result in [1] and in test [8] was “inactive” in each case. For the same compound, the mortality in test [2] is reported as 80%; in test [7], less than 50%; in test [6] it was 60%. Also, the mortality at 2.5 ppm in test [5] came out at 90%.

For the compound `Cn1nc(-c2c(F)cccc2Cl)nc1-c1sc(-c2ccc(C(F)(F)F)cc2)c(Br)c1Cl`, the mortality result in test [1] and in test [3] was “inactive” in each case. In addition, the mortality in test [2] and in test [6] was 90% throughout. In test [4], the mortality at 50 ppm is less than 50%. Besides, the mortality at 2.5 ppm in test [5] turned out to be 90%.

For `Cc1c(-c2nc(-c3c(F)cccc3Cl)nn2C)sc(Br)c1-c1ccc(OC(F)(F)C(F)Br)cc1` (stereo unspecified), the mortality result in test [1] is “inactive”. Further, the mortality in [2] is 80%; in test [7], less than 50%; in [6], 90%. In [4], the mortality at 50 ppm was less than 50%. Moreover, the mortality at 2.5 ppm in [5] was 90%.

`Cc1c(-c2ccc(O)cc2)csc1-c1nc(-c2c(F)cccc2Cl)nn1C`: the mortality result in test [1], in test [10], in [3] and in test [8] was “inactive” throughout. The mortality in test [2] and in test [6] was less than 50% in each case.

Consider `Cc1ccc(-c2cc(Cl)c(-c3nc(-c4c(F)cccc4Cl)nn3C)s2)cc1`, for which the mortality result in test [1], in test [3] and in test [8] was “inactive” in each case. Moreover, the mortality in [2] was less than 50%; in test [6] it was 60%. The mortality at 2.5 ppm in test [5] stood at 90%.

For `Cc1c(-c2ccc(C(C)C)cc2)csc1-c1nc(-c2c(F)cccc2Cl)nn1C`, the mortality in test [2] came to 80%; in [6], 90%; in test [9], 50%. Further, the mortality entry in test [3] and in [8] was “inactive” throughout. Further, the mortality at 2.5 ppm in test [5] was 90%.

On to `Cn1nc(-c2c(F)cccc2Cl)nc1-c1sc(-c2ccc(C(C)(C)C)cc2)c(Cl)c1Cl`, for which the mortality entry in [1] was “inactive”. Further, the mortality in [2] is listed as 50%; in [7] it was less than 50%; in [6] it was less than 50%. The mortality at 50 ppm in [4] came to 80%. The mortality at 2.5 ppm in test [5] came out at 60%.

As for `Cn1nc(-c2c(F)cccc2Cl)nc1-c1sc(-c2ccc(OC(F)(F)F)cc2)c(Cl)c1Cl`, the mortality in test [2] amounted to 70%; in test [7], 70%; in [6], 60%; in test [9], 90%. Also, the mortality result in test [10] and in test [8] was “inactive” in each case.

Consider `Cc1sc(-c2nc(-c3c(F)cccc3Cl)nn2C)c(C)c1-c1ccc(C(F)(F)F)cc1`, for which, in test [1], the mortality result was “inactive”. The mortality in test [2] was found to be 90%; in test [7], 60%; in [6] it was 60%. Moreover, in test [4], the mortality at 50 ppm was less than 50%. For the same compound, the mortality at 2.5 ppm in test [5] was 90%.

Regarding `Cc1c(-c2ccc(OC(F)(F)C(F)Br)cc2)csc1-c1nc(-c2c(F)cccc2Cl)nn1C` (stereo unspecified), in test [1], the mortality entry is “inactive”. Further, the mortality in [2], in test [7] and in [6] was 90% throughout. For the same compound, in test [4], the mortality at 50 ppm was found to be 80%. The mortality at 2.5 ppm in test [5] was 90%.

`Cc1c(-c2ccc(OC(F)(F)C(F)Br)cc2)sc(-c2nc(-c3c(F)cccc3Cl)nn2C)c1C` (stereo unspecified): in [1], the mortality entry is “inactive”. The values for the mortality in test [2], in test [7] and in [6] were 70%, 80% and 90%, respectively. Moreover, the mortality at 50 ppm in [4] is less than 50%. Further, the mortality at 2.5 ppm in [5] was 90%.

As for `Cc1ccc(-c2sc(-c3nc(-c4c(F)cccc4Cl)nn3C)c(Cl)c2Cl)cc1`, the mortality entry in [1] and in test [8] was “inactive” each time. Moreover, the mortality in [2] was 70%; in test [7], 70%; in test [6] it was 50%. Besides, the mortality at 2.5 ppm in test [5] was determined as 90%.
